Laboratory results: ChEMBL document CHEMBL1140230, “Discovery of begacestat, a Notch-1-sparing gamma-secretase inhibitor for the treatment of Alzheimer's disease” (J Med Chem, 2008)
In brackets after ≈: the same amount, converted by molar mass. Activity calls are given as the source filed them. The calls are words filed in the database; no cut-off is given here.

Tests used:
[1] = Selectivity ratio of EC50 for gamma-secretase to EC50 for mouse notch processing
[2] = Inhibition of gamma-secretase expressed in CHO cells expressing human recombinant APP assessed as amyloid beta40 […]; type: cell-based
[3] = Apparent permeability from apical to basolateral side in human Caco-2 cells; type: ADME, cell-based
[4] = Solubility in Phosal PG50/Tween-80/water; type: physicochemical
[5] = system: Mus musculus; experiment: Reduction of amyloid beta40 level in Tg2576 mouse brain at 100 mg/kg, po after 4 hrs; type: functional; parameters: scale not given: the % may be the effect or the level left
[6] = Metabolic stability in rat microsomes assessed as half life; type: ADME, Microsome
[7] = system: Mus musculus; experiment: Reduction of amyloid beta42 level in Tg2576 mouse brain at 100 mg/kg, po after 4 hrs; type: functional; parameters: scale not given: the % may be the effect or the level left
[8] = Dissociation constant, pKa of the compound; type: physicochemical
[9] = Apparent permeability from basolateral to apical side in human Caco-2 cells; type: ADME, cell-based
[10] = Metabolic stability in Tg2576 mouse microsomes assessed as half life; type: ADME, Microsome
[11] = in vitro; conditions: human, microsomes
Description: Metabolic stability in human microsomes assessed as half life

[12] = Membrane permeability by PAMPA assay; type: ADME; conditions: read-out: permeability
[13] = Ratio of drug level in brain to plasma in Tg2576 mouse model; type: ADME
[14] = system: Mus musculus; experiment: Reduction of amyloid beta42 level in Tg2576 mouse brain at 10 mg/kg, po after 4 hrs; type: functional; parameters: scale not given: the % may be the effect or the level left
[15] = system: Mus musculus; experiment: Reversal of cognitive deficits in contextual fear conditioning in Tg2576 mouse model at 10 mg/kg, po; type: functional, organism-based; parameters: dose 10 mg/kg
[16] = system: Mus musculus; experiment: Reduction of amyloid beta40 level in Tg2576 mouse brain at 5 mg/kg, po after 4 hrs; type: functional; parameters: scale not given: the % may be the effect or the level left
[17] = Metabolic stability in monkey microsomes assessed as half life; type: ADME, Macaca mulatta, Microsome; conditions: rhesus monkey
[18] = system: Mus musculus; experiment: Reduction of amyloid beta42 level in Tg2576 mouse brain at 5 mg/kg, po after 4 hrs; type: functional; parameters: scale not given: the % may be the effect or the level left
[19] = Metabolic stability in dog microsomes assessed as half life; type: ADME, Canis lupus familiaris, Microsome
[20] = species on record: Mus musculus; experiment: Reversal of cognitive deficits in contextual fear conditioning in Tg2576 mouse model; type: functional, organism-based

| Compound | Ratio EC50 [1] | IC50 [2] | half-life [6] | pKa [8] | half-life [10] | half-life [11] | further results |
| --- | --- | --- | --- | --- | --- | --- | --- |
| CCC(CC)[C@@H](CO)NS(=O)(=O)c1ccc(Cl)cc1 | 14 | 294 nM |  |  |  |  |  |
| CC[C@H](C)[C@@H](CO)NS(=O)(=O)c1ccc(Cl)cc1 |  | 5450 nM |  |  |  |  | Activity [14]: 25%; Activity [15]: Active |
| O=S(=O)(N[C@H](CO)C(C(F)(F)F)C(F)(F)F)c1ccc(Cl)s1 [BEGACESTAT] | 14 | 15 nM | 3 min | 8.3 | 48 min | > 90 min | Activity [16]: 37%; half-life [17]: 26 min; Activity [18]: 25%; half-life [19]: 31 min |
| C[C@H](NC(=O)Cc1cc(F)cc(F)c1)C(=O)N[C@H](C(=O)OC(C)(C)C)c1ccccc1 |  |  |  |  |  |  | Activity [5]: 25%; Activity [7]: 25%; Activity [20]: Active |
| O=S(=O)(N[C@@H](CO)C(C(F)(F)F)C(F)(F)F)c1ccc(Cl)s1 | 3.7 | 10700 nM |  |  |  |  |  |

The remaining molecules from weak to strong by IC50 [2], led by results:

| Ratio EC50 [1] | IC50 [2] | half-life [6] | pKa [8] | half-life [10] | half-life [11] | Compound | further results |
| --- | --- | --- | --- | --- | --- | --- | --- |
|  | 2210 nM |  |  |  |  | CC[C@H](C)[C@@H](CO)NS(=O)(=O)c1ccc(Br)cc1 | Activity [14]: 25%; Activity [15]: Active |
|  | 297 nM |  |  |  |  | CC[C@H](C)[C@@H](CO)NS(=O)(=O)c1ccc(Cl)s1 |  |
| 10 | 25 nM | 1 min | 9.6 | 2 min | 8 min | CCC(CC)[C@@H](CO)NS(=O)(=O)c1ccc(Cl)s1 [GSI-136] | Papp A→B [3]: 50 ×10⁻⁶ cm/s; solubility [4]: 6700 µg/mL (≈ 21.5 mM); Activity [5]: 25%; Activity [7]: 25%; Papp B→A [9]: 43 ×10⁻⁶ cm/s; Papp [12]: 12.5 ×10⁻⁶ cm/s; Kp [13]: 2 |
| 15 | 16 nM | 8 min | 8.9 | 24 min | 8 min | O=S(=O)(N[C@H](CO)C(CC(F)(F)F)CC(F)(F)F)c1ccc(Cl)s1 | Activity [16]: 27%; half-life [17]: 5 min; Activity [18]: 22%; half-life [19]: 13 min |
